The target in the assay is T1, GST-Mst1 (Homo sapiens, UniProt Q13043).
T1 sequence (Q13043 1-487): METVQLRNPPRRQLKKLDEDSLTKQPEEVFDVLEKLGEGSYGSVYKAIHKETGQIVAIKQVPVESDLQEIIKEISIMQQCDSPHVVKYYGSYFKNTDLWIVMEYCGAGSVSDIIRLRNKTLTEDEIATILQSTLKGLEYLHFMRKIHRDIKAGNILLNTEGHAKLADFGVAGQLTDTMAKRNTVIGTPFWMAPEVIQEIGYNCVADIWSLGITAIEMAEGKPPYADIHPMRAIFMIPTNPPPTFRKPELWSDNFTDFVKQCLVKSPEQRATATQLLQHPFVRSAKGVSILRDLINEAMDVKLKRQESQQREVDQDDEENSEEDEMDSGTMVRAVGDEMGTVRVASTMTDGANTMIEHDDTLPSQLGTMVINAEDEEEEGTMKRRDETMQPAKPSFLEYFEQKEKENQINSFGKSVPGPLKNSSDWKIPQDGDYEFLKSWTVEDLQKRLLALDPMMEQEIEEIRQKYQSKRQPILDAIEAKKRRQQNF
Description: GST-Mst1 in vitro kinase assay (ATP consumption assay). The following applies: result in words.

Each structure is given as a SMILES string.

With `CN[C@@H]1C[C@H]2O[C@@](C)([C@@H]1OC)n1c3ccccc3c3c4c(c5c6ccccc6n2c5c31)C(=O)NC4` [staurosporine], the “inhibition of MST1 kinase activity (ATP consumption)” value was “completely inhibit”. Moreover, where the note is “listed as Staurosporine”, the “inhibition of MST1 kinase activity (ATP consumption)” value is given as “inhibit completely”.
